Assays:
[1] = test system: ChR2-CMs (neonatal rat ventricular CMs); assay type: cell-based
Method: (§1) Primary CMs were used through the study for all illustrative experiments with pharmacological treatments, mainly because at the current stage, they are perceived as more mature than the hiPSC-CMs and their response to drugs has been better documented. Briefly, neonatal (2-3 day old) SPRAGUE-DAWLEY® rats were sacrificed and ventricular tissue was removed per an approved Stony Brook University IACUC protocol. The tissue was digested overnight at 4° C. using 1 mg/mL trypsin (US BIOCHEMICALS®, Cleveland, Ohio) in Hanks' Balanced Salt Solution (HBSS, GIBCO® INVITROGEN™, Carlsbad, Calif.). The next morning, the tissue was serially digested using 1 mg/mL collagenase (WORTHINGTON BIOCHEMICAL®, Lakewood, N.J.) in HBSS at 37° C. and pipetted into conical tubes and placed on ice. After centrifugation, cells were re-suspended in culture medium M199 (GIBCO®) supplemented with […] L-glutamine (GIBCO®), 0.05 μg/mL penicillin-streptomycin (MEDIATECH CELLGRO™, Kansas City, Mo.), 0.2 μg/mL vitamin B12 (SIGMA ALDRICH®, St. Louis, Mo.), 10 mM HEPES (GIBCO®), 3.5 mg/mL D-(+)-glucose (SIGMA ALDRICH®), and 10% fetal bovine serum, FBS (GIBCO®). Fibroblasts were removed via a two-step pre-plating process, where the cell suspension was plated in a flask and incubated (37° C., 5% CO2) for 45-60 minutes and switched to a new flask and the incubation repeated. CMs were then counted using a hemocytometer prior to plating in glass-bottom 96-well plates (see Jia, Z. et al. Circulation. Arrhythmia and electrophysiology 4, 753-760, (2011) and Chung, C. Y., et al. J Cardiovasc Electrophysiol […], 1323-1329, (2007)).
Adenoviral delivery of ChR2(H134R) to primary CMs was performed in suspension (see Ambrosi, C. M. et al. Methods Mol Biol 1181, 215-228, (2014)). Briefly, the plasmid pcDNA3.1/hChR2(H134R)-EYFP was used (ADDGENE™, Cambridge, Mass.; deposited by Dr. K. Deisseroth) (see Zhang, F. et al. Nature 446, 633-639, (2007)), to develop an adenoviral construct (pBR322 backbone) with a ubiquitous CMV promoter. First-generation adenovirus was generated by homologous recombination of the Ad-CMV-ChR2-eYFP into pTG3604; further propagation and purification of the virus genomes was done by transfection into HEK293 cells and CsC1 banding. CMs were re-suspended in 2% FBS M199 after counting and diluted to 1.125×10^6 cells/mL and infected using an optimized MOI of 15 for two hours in an incubator (37° C., 5% CO2) with gentle agitation every 20 minutes. The MOI had been optimized during preliminary experiments to achieve >95% ChR2 expression in CMs within 48 hours using titer of 10^12 units/mL diluted in PBS, confirmed by eYFP reporter visualization and minimal cell death (by propidium iodide staining) (see Ambrosi, C. M., et al. Prog Biophys Mol Biol 115, 294-304, (2014) and Ambrosi, C. M. et al. Methods Mol Biol 1181, 215-228, (2014)). After two hours, the cell suspension was centrifuged and culture medium was removed and replaced with fresh 10% FBS M199 for plating (see Ambrosi, C. M. et al. Methods Mol Biol 1181, 215-228, (2014)).
Non-infected control CMs and ChR2-CM cells (for OptoHTS) were plated using a concentration of 1.125×10^6 cells/mL to achieve a plating density of 470,000 cells/cm^2. For CM/ChR2-HEK co-cultures, CMs at a concentration of 1.125×10^6 cells/mL were mixed in a conical with trypsinized ChR2-HEK cells, pre-diluted to achieve ratios 150:1 CM to ChR2-HEK. After centrifugation, the media was removed and the cells were re-suspended in fresh 10% FBS M199 to achieve the same density of plating as the control CMs.
All functional experiments were carried out 4-5 days after cell plating, at room temperature in Tyrode's solution containing the following (in mM): NaCl, 135; MgCl2, 1; KCl, 5.4; CaCl2, 1.5; NaH2PO4, 0.33; glucose, 5; and HEPES, 5 adjusted to pH 7.4 with NaOH (see Chung, C. Y., et al. J Cardiovasc Electrophysiol 18, 1323-1329, (2007)). […]

"spark"-ChR2-CMs = assay: sOptoHTS: all-optical electrophysiology of CMs sprinkled with "spark" ChR2-HEK cells; assay type: cell-based, rat
Method: as §1
The cell delivery approach employs “spark” cells (ChR2(H134R)-HEK293), a stable cell line showing near 100% expression of ChR2. “Spark” cells were developed by transfecting HEK293 cells (CRL-1573™ ATCC®, Manassas, Va.) with the ChR2 plasmid pcDNA3.1/hChR2(H134R)-EYFP using LIPOFECTAMINE® 2000 (INVITROGEN™, Carlsbad, Calif.). […]

hiPS-CMs = assay: Optical calcium recording in hiPS-CMs (OptoDyCE); assay type: cell-based, human; details: 1 μM, 10 min
Method: Frozen human iPSC-derived CMs (ICELL® Cardiomyocytes^2 CMC-100-012-001, CELLULAR DYNAMICS INTERNATIONAL™, Madison, Wis.) were thawed per the manufacturer's instructions. The cells were plated at the recommended plating density of 156,000 cells/cm^2 on fibronectin-coated 96-well glass-bottom plates. In some experiments, cells were grown in three-dimensional microgrooved scaffolds. These fibronectin-coated PDMS (SYLGARD® 184, DOW CORNING®, Midland, Mich.) scaffolds with microtopographical features (see FIG. 16, panel “e,” peak-to-peak 120 μm, depth of 50 μm) were produced by molding onto metal templates fabricated by acoustic micromachining (see Entcheva, E. et al. Lab Chip 5, 179-183, (2005); Chung, C. Y. et al. FASEB journal: official publication of the Federation of American Societies for Experimental Biology 25, 851-862, (2011); and Chung, C. Y., et al. J Cardiovasc Electrophysiol 18, 1323-1329, (2007)); and small circular microgrooved scaffolds were punched-out and placed in the 96-well plates. […]
Optical recording of membrane voltage, Vm, was performed using the synthetic voltage-sensitive dye Di-4-ANBDQBS, spectrally-compatible with ChR2. […] Intracellular calcium, [Ca^2+]i, was recorded using QUEST RHOD-4™, AM diluted from a 0.5 mM stock solution dissolved in DMSO with 20% PLURONIC® to 10 μM in Tyrode's solution. […]

For `C[S+](C)[O-]` [DMSO], the “effect on APD / electrophysiological measurements” value [1] was “not seen to affect the electrophysiological (EP) measurements”.
For `CN(CCOc1ccc(NS(C)(=O)=O)cc1)CCc1ccc(NS(C)(=O)=O)cc1` [dofetilide, Dofetilide], the “calcium instability / spatial heterogeneity” value ([1]; 0.02 μM, paced at 1 Hz, 0.539 mW/mm^2 10 ms light pulses) was “localized spontaneous calcium release (SCR)”, the “spatial variability in APD (dispersion of repolarization)” value ([1]; 2 μM, 1 Hz pacing, versus control, p<0.05 for APD50) was “increases spatial variability in APD” and the “effect on APD” value ([1]; 2 μM, 2 Hz optical pacing) was “APD prolongation”. The voltage instabilities ([1]; 2 μM, 2 Hz optical pacing) was “alternans”, the “relative APD50 change versus pacing frequency” value ([1]; at higher frequency, opposite to reverse-use dependence) was “enhanced relative APD50 prolongation” and the “drug-induced AP variation, lower dose” value ("spark"-ChR2-CMs; 0.2 μM, paced at 1 Hz) was “sporadic EADs”. The “drug-induced AP variation, higher dose” value ("spark"-ChR2-CMs; 2 μM, paced 2 Hz) was “large temporal variability in AP morphology” and the “early afterdepolarizations (EADs) versus dose” value ("spark"-ChR2-CMs; optically paced samples, FIGS. 10A-10C) was “dose-dependent increase in EADs”.
In the case of `CC(C)NCC(O)c1ccc(O)c(O)c1` (stereo not shown) [isoproterenol], the “calcium-mediated pacing activity in quiescent cells” value (hiPS-CMs; quiescent hiPS-CMs) is reported as “calcium-mediated pacing activity was induced” and the “rate of pacing in spontaneously beating cells” value (hiPS-CMs; spontaneously beating hiPS-CMs) is reported as “rate of pacing was accelerated”.
`COC(=O)C1=C(C)NC(C)=C(C(=O)OC)C1c1ccccc1[N+](=O)[O-]` [nifedipine, Nifedipine] was tested, and the “concentration of maximum APD shortening” value ([1]; optical pacing 1 Hz) was “around 1 μM” and the “concentration up to which CTD monotonically decreases” value ([1]; optical pacing 1 Hz) was “up to 10 μM”.

— patent publication US11680904B2, “Automated system for high-throughput all-optical dynamic electrophysiology” (The George Washington University, priority 2016, dated 2023)
